Three molecules from ChEMBL document CHEMBL6074682, “Expanding the therapeutic window of gramicidin S towards a safe and effective systemic treatment of methicillin-resistant S. aureus infections” (Eur J Med Chem, 2025) can be followed below.

The subject of data set [1] is Staphylococcus aureus. Kind of data set: Antibacterial activity against methicillin-resistant Staphylococcus aureus ATCC USA 300 clinical isolate assessed as bacterial growth inhibition at 256 to 0.125 ug/ml in CAMH broth medium incubated for 16 to 20 hrs by broth microdilution method. As to conditions: dose 256-0.125 µg/ml, time 16-20 hrs. The format is functional. (In general: Broth dilution looks for growth in wells or tubes with falling amounts of substance.)

Data set [2] in a line: Therapeutic index, ratio of HC50 for human RBC to MIC for antibacterial activity against methicillin-sensitive Staphylococcus aureus ATCC 29213 clinical isolate. Particulars: pooled result: one value given for 2 cell lines, strains, targets or settings, read-out: TI. The data set is classed as toxicity, cell-based.
A short description of data set [3]: Hemolytic activity in sheep RBC. The data set is classed as toxicity, cell-based, Ovis aries, Erythrocyte. Particulars: sheep red blood cells.
The test system of data set [4] is Staphylococcus aureus. The data set can be described thus: Antibacterial activity against methicillin-sensitive Staphylococcus aureus ATCC 29213 clinical isolate assessed as bacterial growth inhibition at 256 to 0.125 ug/ml in CAMH broth medium incubated for 16 to 20 hrs by broth microdilution method. The format is functional. Particulars: dose 256-0.125 µg/ml, time 16-20 hrs.

Data set [5] in a line: Retention time of the compound by RP-HPLC analysis. The data set is classed as physicochemical.
Data set [6] can be described thus: Hemolytic activity in human RBC assessed as hemolysis incubated for 1 hr by absorbance based assay. The format is toxicity, cell-based, Erythrocyte. Particulars: human red blood cells.
Data set [7] is described as follows: Nephrotoxicity against HEK293 cells assessed as cell viability incubated for 24 hrs by MTT assay. As to conditions: human. The data set is classed as toxicity, cell-based. (In general: Tetrazolium dyes change colour on reduction, which living cells bring about.)

In brackets after ≈: the same amount, converted by molar mass. Square brackets hold non-standard residues; d marks the D form. Peptide text beside a SMILES is read from it. Tle = CC(C)(C)[C@H](N)C(=O)O; Orn = NCCC[C@H](N)C(=O)O Some results are limits rather than exact numbers.

Consider `CC(C)C[C@@H]1NC(=O)[C@H](CCCN)NC(=O)[C@H](C(C)C)NC(=O)[C@@H]2CCCN2C(=O)[C@@H](Cc2ccccc2)NC(=O)[C@H](CC(C)C)NC(=O)[C@H](CCCN)NC(=O)[C@H](C(C)C)NC(=O)[C@@H]2CCCN2C(=O)[C@@H](CCCNC(=N)N)NC1=O` (HELM PEPTIDE1{L.[dF].P.V.[Orn].L.[dR].P.V.[Orn]}$PEPTIDE1,PEPTIDE1,1:R1-10:R2$$$V2.0), for which the MIC in data set [1] and in data set [4] was 8 µg/mL (≈ 6.95 µM) each time. The selectivity ratio in data set [2] stood at 4.9. Besides, in data set [3], the HC50 was > 115 µg/mL. The same molecule gave a Retention_time in data set [5] of 16.22 min. The HC50 at 1 h in data set [6] was 39.2 µg/mL. Further, in data set [7], the IC50 at 24 h is 18.7 µg/mL (≈ 16.2 µM).
Turning to `CC(C)(C)[C@@H]1NC(=O)[C@H](CCCN)NC(=O)[C@H](C(C)(C)C)NC(=O)[C@@H]2CCCN2C(=O)[C@@H](Cc2ccccc2)NC(=O)[C@H](C(C)(C)C)NC(=O)[C@H](CCCN)NC(=O)[C@H](C(C)(C)C)NC(=O)[C@@H]2CCCN2C(=O)[C@@H](Cc2ccccc2)NC1=O` (cyclo([Orn][Tle][dF]P[Tle][Orn][Tle][dF]P[Tle])), the MIC in data set [1] and in data set [4] was 2 µg/mL (≈ 1.71 µM) each time. Further, the selectivity ratio in data set [2] is 2.95. Also, the Retention_time in data set [5] is reported as 19.9 min. Also, the HC50 at 1 h in data set [6] came out at 5.9 µg/mL. Further, in data set [7], the IC50 at 24 h worked out at 5.31 µg/mL (≈ 4.54 µM).
Turning to `CC(C)C[C@@H]1NC(=O)[C@H](CCCN)NC(=O)[C@H](C(C)C)NC(=O)[C@H](Cc2c[nH]c3ccccc23)NC(=O)[C@@H](Cc2c[nH]c3ccccc23)NC(=O)[C@H](CC(C)C)NC(=O)[C@H](CCCN)NC(=O)[C@H](C(C)C)NC(=O)[C@H](Cc2c[nH]c3ccccc23)NC(=O)[C@@H](Cc2c[nH]c3ccccc23)NC1=O`, the MIC in data set [1] and in data set [4] was 32 µg/mL (≈ 22.9 µM) each time. In addition, the selectivity ratio in data set [2] was found to be 1.74. In data set [5], this molecule returned a Retention_time of 18.69 min. In addition, in data set [6], the HC50 at 1 h came out at 55.6 µg/mL. In data set [7], the IC50 at 24 h was found to be 19.7 µg/mL (≈ 14.1 µM).

As usually defined, the MIC is the smallest concentration in the dilution series that meets the test's criterion for growth inhibition. Broadly, the HC50 is the concentration giving 50% haemolysis. As a reminder, the IC50 is the concentration that gives 50% inhibition.
